Assay results taken from patent US20220265591A1, “USE OF AN OSMOLYTE IN MANUFACTURE OF A MEDICAMENT FOR TREATMENT OF OCULAR DISORDERS” (SINGAPORE HEALTH SERVICES PTELTD, priority 2019, published 2022).
Where two headings read alike, the source gives them in different places.

Assays:
[1] = molecular target: T1, TGFBIp 611-633 c.623 G>R fibrils (Homo sapiens, UniProt Q15582, G623R); test: Transmission Electron Microscopy of preformed fibrils; conditions: 72 hours treatment
T1 construct: The 23-amino acid long peptide (TGFBIp 611-633 c.623 G>R) from the 4th FAS1 domain; purchased Synpeptide Co Ltd, Shanghai, China; host or cells: synthetic peptide
Experimental: The disaggregation of preformed amyloid fibrils was also verified by TEM analysis as illustrated in FIG. 8B. Morphological analysis of the TGFBIp 611-633 c.623 G>R fibrils before and after treatment with osmolytes for 72 hours was investigated by Transmission electron microscopy (TEM) with a JEOL JEM-1010 transmission electron microscope using Digital Micrograph™ 1.81.78 for GMS 1.8.0 (Gatan, Pleasanton, Calif.) at the Singhealth-core Electron Microscopy facility. 10 μl of amyloid fibril samples with and without osmolyte treatment were applied onto Formvar-carbon coated 300-mesh-size nickel grids. The samples were stained with Uranyl acetate solution, washed, dried, and observed at magnifications 8000-50000× at 80 kV.

[2] = molecular target: T2, preformed amyloid fibrils from TGFBIp611-633 G623R peptide (Homo sapiens, UniProt Q15582, G623R); test: Circular Dichroism assay (θ[218]), disaggregation of preformed amyloid fibrils; format: biochemical; conditions: for inhibition at 200000 µM / disruption of the β-sheet structure compared among the four osmolytes, CD: preformed fibrils; for inhibition at 200000 µM: read-out: % Inhibition (mean ± SD) n = 3, θ[218] of preformed amyloid fibrils, circular dichroism; for % Dissolution at final time point, CD: TGFBIp-G623R preformed fibrils, listed as taurine
T2 construct: The 23-amino acid long peptide (TGFBIp 611-633 c.623 G>R) from the 4th FAS1 domain; purchased Synpeptide Co Ltd, Shanghai, China; host or cells: synthetic peptide
Experimental: Circular Dichroism (CD) spectroscopy was performed to study the disaggregation of the preformed amyloid fibrils. […] The treatment solutions were studied by far UV-CD assay.
(§1) Circular Dichroism (CD) spectroscopy was performed to study the disaggregation of the preformed amyloid fibrils. The preformed amyloid fibrils were treated with taurine at a concentration of 200 mM and 320 mM in PBS buffer at pH 7.0 for 24 h, 48 h and 72 respectively. The treatment solutions were studied by far UV-CD assay.

[3] = molecular target: T3, preformed amyloid fibrils from TGFBIp611-633 N622K peptide (Homo sapiens, UniProt Q15582, N622K); test: Circular Dichroism assay, disaggregation of preformed amyloid fibrils; format: biochemical; conditions: TGFBIp-N622K preformed fibrils, listed as taurine
T3 construct: purchased Synpeptide Co Ltd, Shanghai, China; host or cells: synthetic peptide
Experimental: (§2) The model peptides TGFBIp^611-633 G623R and TGFBIp^611-633 N622K were incubated in PBS for 24 hours for the TGFBIp^611-633 G623R peptide and 96 hours for the TGFBIp^611-633 N622K peptide, allowed to form uniform amyloid fibrils. The formation of amyloid fibrils was confirmed by (SEM) and CD spectroscopy.
as §1

[4] = molecular target: T4, TGFBIp611-633 N622K peptide (Homo sapiens, UniProt Q15582, N622K); test: ThT fluorescence assay, inhibition of amyloid fibrillation; format: biochemical; conditions: TGFBIp-N622K, final time point
T4 construct: The TGFBIp^611-633 N622K peptides were treated with 200 mM and 320 mM of taurine; purchased Synpeptide Co Ltd, Shanghai, China; host or cells: synthetic peptide
Experimental: The TGFBIp^611-633 G623R peptides were treated with 200 mM and 320 mM of taurine for up to 72 hours, respectively, the results of which are illustrated in FIG. 11. The TGFBIp^611-633 N622K peptides were treated with 200 mM and 320 mM of taurine for up to 240 hours, respectively, the results of which are illustrated in FIG. 12. The peptides incubated with PBS were used as controls.
The peptide samples were collected at 24 h, 48 h and 72 h after treatment for TGFBIp^611-633 G623R peptides and at 120 h, 144 h and […] after treatment for the TGFBIp^611-633 N622K peptides. The samples were then treated with 30 μM ThT in PBS buffer at pH 5.5 in a 96-well microplate for ThT fluorescence assay. The microplate was excited at 445 nm and the resulting emission fluorescence at 485 nm was measured using a microplate reader.

[5] = molecular target: T3, preformed amyloid fibrils from TGFBIp611-633 N622K peptide; test: ThT fluorescence assay, dissolution of preformed amyloid fibrils; format: biochemical; conditions: TGFBIp-N622K preformed fibrils
Experimental: as §2
The preformed amyloid fibrils were treated with taurine at a concentration of 200 mM and 320 mM for up to 72 hours, respectively. The preformed amyloid fibrils incubated with PBS were used as controls.
The samples were collected at 24 h, 48 h and 72 h after treatment for the TGFBIp^611-633 G623R peptides, and at 24 h, 48 h, 96 h and 144 h after treatment for the TGFBIp^611-633 N622K peptides. The samples were then treated with 30 μM ThT in PBS buffer at pH 5.5 in a 96-well microplate for ThT fluorescence assay. The microplate was excited at 445 nm and the resulting emission fluorescence at 485 nm was measured using a microplate reader.

[6] = molecular target: T2, preformed amyloid fibrils from TGFBIp611-633 G623R peptide; test: ThT fluorescence microscopy, disaggregation of preformed amyloid fibrils; conditions: 200 mM and 320 mM
Experimental: The ability of osmolytes to disaggregate the preformed amyloid fibrils were investigated further by fluorescence microscopy after ThT staining. The peptide samples collected at the various time points above were incubated at a ratio of 1:1 ratio of thpeptide solution to ThT in the dark for 30 minutes to obtain solutions for fluorescence microscopy. 25 μl of the solutions were taken on to slides with coverslips and visualized under a fluorescent microscope. Three representative images from each time point under a given condition was used for the quantitation of fluorescence. Image J software was used to quantify the signal from the images and the values for each time point per osmolyte treatment were normalised to the untreated sample at that particular time point.
The inhibition effect of taurine on the preformed amyloid fibrils was investigated further by fluorescence microscopy after ThT staining. The samples collected at the various time points above were incubated ThT at a ratio of 1:1 ratio in the dark for 30 minutes to obtain solutions for fluorescence microscopy. 25 μl of the solutions were taken on to slides with coverslips and visualized under a fluorescent microscope.

T2 sequence (Q15582 611-633 G623R limits assumed): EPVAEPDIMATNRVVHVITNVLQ
T3 sequence (Q15582 611-633 N622K limits assumed): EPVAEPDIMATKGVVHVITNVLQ

inhibition at 200000 µM ([2]; 200 mM, 24 h) [%]	inhibition at 200000 µM ([2]; 200 mM, 48 h) [%]	inhibition at 200000 µM ([2]; 200 mM, 72 h) [%]	% Dissolution at final time point, CD ([3]; 200 mM) [%]	% Dissolution at final time point, CD ([3]; 320 mM) [%]	inhibition at 200000 µM ([4]; 200 mM) [%]	inhibition at 320000 µM ([4]; 320 mM) [%]	% Dissolution at final time point, ThT ([5]; 200 mM) [%]	% Dissolution at final time point, ThT ([5]; 200 mM, listed as taurine) [%]	% Dissolution at final time point, ThT ([5]; 320 mM) [%]	% Dissolution at final time point, ThT ([5]; 320 mM, listed as taurine) [%]	fluorescent intensity under microscope, preformed fibrils [6]	% Dissolution at final time point, CD ([2]; 200 mM) [%]	% Dissolution at final time point, CD ([2]; 320 mM) [%]	Structure (SMILES)	TEM morphology of fibrils [1]	disruption of the β-sheet structure compared among the four osmolytes, CD ([2]; 200 mM)
6 ± 1	24 ± 11	36												C[N+](C)(C)CC(=O)O [Betaine, betaine]	reduction in density of ordered amyloid fibrils was evident	
7 ± 7	48 ± 9	~58												OC[C@H]1O[C@H](OC[C@H]2O[C@H](O[C@]3(CO)O[C@H](CO)[C@@H](O)[C@@H]3O)[C@H](O)[C@@H](O)[C@@H]2O)[C@H](O)[C@@H](O)[C@H]1O [Raffinose, raffinose]	reduction in density of ordered amyloid fibrils was evident	highest disruption of the β-sheet structure
12 ± 8	39 ± 6	41												CNCC(=O)O [Sarcosine, sarcosine]	reduction in density of ordered amyloid fibrils was evident	
13 ± 6	40 ± 12	~54	61	66	37	76	83	83	88	88	reduction in fluorescent intensity	49	69	NCCS(=O)(=O)O [Taurine, taurine]	reduction in density of ordered amyloid fibrils was evident	highest disruption of the β-sheet structure
